Where a name gives a salt, the structure may show the parent alone.
Assays:
[1] = molecular target: T1, rat r5-HT1B receptors (Rattus norvegicus, UniProt P28564); test: Binding affinity at rat r5-HT1B receptors, rat cerebral cortex membrane binding (RBA); details: value in parentheses; monohydrochloride salt
T1 construct: from tissue
Protocol: Binding Protocol for Determination of Affinity at rat r5-HT 1B Receptors (RBA)
This binding affinity protocol was performed according to standard conditions disclosed in Eur. J. Pharmacol. 1985, 118, 1-12.

[2] = system: chronically hypoxic murine model of pulmonary arterial hypertension (PAH); test: Effect on development of hypoxia-induced pulmonary hypertension (haemodynamics, right ventricular hypertrophy); assay type: in vivo, Mice (C57B/6J); details: mice
Protocol: Protocol for the Determination of the Effect on the Development of Hypoxia-Induced Pulmonary Hypertension.
Mice (C57B/6J, male, 2 months) were exposed to 14 days of hypobaric hypoxia (equivalent to 10% O2) or normoxia, as described in MacLean, M. R. et al. Circulation 2008, 117, 2928-2937 and MacLean, M. R. et al. Circulation 2004,109, 2150-2155. Mice were dosed either with vehicle (dH2O) or 82 (15 mg/kg/day) for 14 days. Haemodynamic Measurements: Heart rate, right ventricular pressure and systemic arterial pressure were measured and analysed as described in MacLean, M. R. et al. Circulation 2008, 117, 2928-2937 and MacLean, M. R. et al. Circulation 2004,109, 2150-2155. Briefly, right ventricular pressure was measured via transdiaphragmatic right heart catheterisation and systemic arterial pressure was measured via cannulation of the left common carotid artery. Lung Histology: Sagittal sections of lung were elastica-Van Gieson stained and microscopically assessed for the muscularisation of pulmonary arteries (<80 μm external diameter) in a blinded fashion as described in MacLean, M. R. et al. Circulation 2008, 117, 2928-2937 and MacLean, M. R. et al. Circulation 2004,109, 2150-2155. Remodelled arteries were confirmed by the presence of a double elastic laminae.
(§1) Lung sections from 5 mice for each group were studied. Approximately 150 arteries from each lung section (˜750 arteries in total for each group) were assessed. Right Ventricular Hypertrophy: Right ventricular hypertrophy (RVH) was assessed by weight measurement of the right ventricular free wall (RV) and left ventricle plus septum (LV+S). The ratio expressed is RV/LV+S. RVH measurements from 6 to 8 mice for each group were assessed. Myography: Small pulmonary arteries (PAs) of ˜350 μm internal diameter (i.d.) were set up on wire myographs as described in MacLean M. R. et al. J Pharmacol Exp Ther. 2005, 313, 539-548. Briefly, PAs from normoxic mice were set up at tensions equivalent to their mean in vivo right ventricular pressure (RVP) (12-15 mmHg), whereas PAs from hypoxic mice were set up at tensions equivalent to the elevated in vivo mean pressures observed after exposure to hypoxia (25-30 mmHg). After a 45-min equilibration period, the response to 50 mM KCl was determined. Cumulative response curves were constructed in the presence and absence of the antagonist which was allowed a 45-min equilibrium period before constructing the curves.
The effects of 82 on a chronically hypoxic murine model of pulmonary arterial hypertension (PAH) were assessed. Four small groups of n=3 or 4 were used. The results are illustrated in FIGS. 13-17 (see also description of figures, above).

[3] = system: intralobar pulmonary arteries from hypoxic mice; test: Myography of pulmonary arteries: vasoreactivity to 5-HT; set-up: species or system Mice (C57B/6J); details: 15 mg/kg/day
Protocol: as §1

T1 sequence (P28564 whole entry): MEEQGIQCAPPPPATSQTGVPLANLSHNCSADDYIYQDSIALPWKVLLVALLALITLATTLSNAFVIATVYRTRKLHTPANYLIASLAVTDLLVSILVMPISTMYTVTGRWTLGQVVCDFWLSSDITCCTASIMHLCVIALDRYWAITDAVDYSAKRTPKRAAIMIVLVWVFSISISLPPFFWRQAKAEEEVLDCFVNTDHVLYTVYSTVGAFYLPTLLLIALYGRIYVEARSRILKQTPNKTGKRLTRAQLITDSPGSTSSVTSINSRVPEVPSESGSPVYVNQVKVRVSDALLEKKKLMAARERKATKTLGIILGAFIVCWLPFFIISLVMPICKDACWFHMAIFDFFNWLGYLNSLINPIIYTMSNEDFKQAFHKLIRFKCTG

CN1CCN(c2nc(N3CCN(c4ccccc4)C3=O)cc3ccoc23)CC1 [Example 82, 1-(7-(4-Methylpiperazin-1-yl)furo[2,3-c]pyridin-5-yl)-3-phenylimidazolidin-2-one hydrochloride]
IC50 [1]: 110 nM
effect on heart rate (HR) ([2]; 15 mg/kg/day): no significant effect
effect on mean systemic arterial pressure (mSAP) ([2]; 15 mg/kg/day): no significant effect
hypoxia-induced increases in systolic right ventricular pressure (sRVP) ([2]; 15 mg/kg/day for 14 days, hypobaric hypoxia): significantly attenuated
hypoxia-induced right ventricular hypertrophy (RVH) ([2]; 15 mg/kg/day for 14 days, hypobaric hypoxia, RV/LV+S): significantly attenuated
effect on the increase in contractility to 5HT in intralobar pulmonary arteries from hypoxic mice [3]: no effect
